Results taken from PubChem BioAssay AID1963976 (Molecular Pharmacology Branch, DTP, NCI, 2024).

System: 435261-313-R-J1-PDC tumor spheroid viability
Test: Anticancer human tumor 435261-313-R-J1-PDC patient-derived colon adenocarcinoma cell line growth inhibition [PI3K]
Conditions: spheroids with HUVEC and MSC; for IC50: curve of first compound; for viability, T/C: stronger effect = lower value; active = viability on the fitted dose curve at most 10% of control; inactive = the rest
Method in brief: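 Complex 3D spheroids (cancer cells + endothelial HUVEC + mesenchymal stem cells); drug pairs of targeted agent x inavolisib/alpelisib/duvelisib/copanlisib; half-log series from ~Cmax, max 10 microM if Cmax unknown; endpoint viability.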
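Note: spheroids exposed to compounds for 7 days.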

CNC(=O)c1ccc(N2C(=S)N(c3ccc(C#N)c(C(F)(F)F)c3)C(=O)C2(C)C)cc1F + CC(Nc1ncnc2nc[nH]c12)c1cc2cccc(Cl)c2c(=O)n1-c1ccccc1
inactive: viability, T/C (second compound 0.0316 µM, first compound 0.0316 µM) 106% | viability, T/C (second compound 0.0316 µM, first compound 0.1 µM) 70.5% | viability, T/C (second compound 0.0316 µM, first compound 0.316 µM) 72.3% | viability, T/C (second compound 0.0316 µM, first compound 1 µM) 82.8% | viability, T/C (second compound 0.0316 µM, first compound 3.16 µM) 99.8% | viability, T/C (second compound 0.0316 µM, first compound 10 µM) 74.8% | viability, T/C (second compound 0.1 µM, first compound 0.0316 µM) 101% | viability, T/C (second compound 0.1 µM, first compound 0.1 µM) 90.6% | viability, T/C (second compound 0.1 µM, first compound 0.316 µM) 111% | viability, T/C (second compound 0.1 µM, first compound 1 µM) 121% | viability, T/C (second compound 0.1 µM, first compound 3.16 µM) 79.7% | viability, T/C (second compound 0.1 µM, first compound 10 µM) 65.7% | viability, T/C (second compound 0.316 µM, first compound 0.0316 µM) 78.5% | viability, T/C (second compound 0.316 µM, first compound 0.1 µM) 90.4% | viability, T/C (second compound 0.316 µM, first compound 0.316 µM) 103% | viability, T/C (second compound 0.316 µM, first compound 1 µM) 79.8% | viability, T/C (second compound 0.316 µM, first compound 3.16 µM) 102% | viability, T/C (second compound 0.316 µM, first compound 10 µM) 81.8% | viability, T/C (second compound 1 µM, first compound 0.0316 µM) 95.1% | viability, T/C (second compound 1 µM, first compound 0.1 µM) 97.1% | viability, T/C (second compound 1 µM, first compound 0.316 µM) 75.9% | viability, T/C (second compound 1 µM, first compound 1 µM) 86.5% | viability, T/C (second compound 1 µM, first compound 3.16 µM) 73.1% | viability, T/C (second compound 1 µM, first compound 10 µM) 66.4% | viability, T/C (second compound 3.16 µM, first compound 0.0316 µM) 101% | viability, T/C (second compound 3.16 µM, first compound 0.1 µM) 91.6% | viability, T/C (second compound 3.16 µM, first compound 0.316 µM) 69.5% | viability, T/C (second compound 3.16 µM, first compound 1 µM) 64.5% | viability, T/C (second compound 3.16 µM, first compound 3.16 µM) 59.3% | viability, T/C (second compound 3.16 µM, first compound 10 µM) 67.3% | viability, T/C (second compound 10 µM, first compound 0.0316 µM) 55% | viability, T/C (second compound 10 µM, first compound 0.1 µM) 44.7% | viability, T/C (second compound 10 µM, first compound 0.316 µM) 64% | viability, T/C (second compound 10 µM, first compound 1 µM) 68.6% | viability, T/C (second compound 10 µM, first compound 3.16 µM) 58.5% | viability, T/C (second compound 10 µM, first compound 10 µM) 39.8%
> 10000 nM: IC50 (second compound 0.0316 µM) | IC50 (second compound 0.1 µM) | IC50 (second compound 0.316 µM) | IC50 (second compound 1 µM) | IC50 (second compound 3.16 µM) | IC50 (second compound 10 µM)

Cn1cnc2c(F)c(Nc3ccc(Br)cc3Cl)c(C(=O)NOCCO)cc21 + CC(Nc1ncnc2nc[nH]c12)c1cc2cccc(Cl)c2c(=O)n1-c1ccccc1
10.7 nM: IC50 (second compound 0.1 µM)
inactive: viability, T/C (second compound 0.0316 µM, first compound 0.00949 µM) 60.3% | viability, T/C (second compound 0.0316 µM, first compound 0.03 µM) 35.7% | viability, T/C (second compound 0.0316 µM, first compound 0.0949 µM) 26.9% | viability, T/C (second compound 0.0316 µM, first compound 0.3 µM) 25.1% | viability, T/C (second compound 0.0316 µM, first compound 0.949 µM) 22.2% | viability, T/C (second compound 0.0316 µM, first compound 3 µM) 18.6% | viability, T/C (second compound 0.1 µM, first compound 0.00949 µM) 51.9% | viability, T/C (second compound 0.1 µM, first compound 0.03 µM) 34.6% | viability, T/C (second compound 0.1 µM, first compound 0.0949 µM) 23% | viability, T/C (second compound 0.1 µM, first compound 0.3 µM) 25% | viability, T/C (second compound 0.1 µM, first compound 0.949 µM) 21.7% | viability, T/C (second compound 0.1 µM, first compound 3 µM) 16.6% | viability, T/C (second compound 0.316 µM, first compound 0.00949 µM) 59.9% | viability, T/C (second compound 0.316 µM, first compound 0.03 µM) 38.6% | viability, T/C (second compound 0.316 µM, first compound 0.0949 µM) 25% | viability, T/C (second compound 0.316 µM, first compound 0.3 µM) 22.7% | viability, T/C (second compound 0.316 µM, first compound 0.949 µM) 21.4% | viability, T/C (second compound 0.316 µM, first compound 3 µM) 13.9% | viability, T/C (second compound 1 µM, first compound 0.00949 µM) 43.4% | viability, T/C (second compound 1 µM, first compound 0.03 µM) 34.5% | viability, T/C (second compound 1 µM, first compound 0.0949 µM) 26.4% | viability, T/C (second compound 1 µM, first compound 0.3 µM) 22.2% | viability, T/C (second compound 1 µM, first compound 0.949 µM) 21% | viability, T/C (second compound 1 µM, first compound 3 µM) 12.1% | viability, T/C (second compound 3.16 µM, first compound 0.00949 µM) 38.8% | viability, T/C (second compound 3.16 µM, first compound 0.03 µM) 29.6% | viability, T/C (second compound 3.16 µM, first compound 0.0949 µM) 21% | viability, T/C (second compound 3.16 µM, first compound 0.3 µM) 20.6% | viability, T/C (second compound 3.16 µM, first compound 0.949 µM) 19.5% | viability, T/C (second compound 3.16 µM, first compound 3 µM) 12.3% | viability, T/C (second compound 10 µM, first compound 0.00949 µM) 22.3% | viability, T/C (second compound 10 µM, first compound 0.03 µM) 21.1% | viability, T/C (second compound 10 µM, first compound 0.0949 µM) 19.6% | viability, T/C (second compound 10 µM, first compound 0.3 µM) 16.3% | viability, T/C (second compound 10 µM, first compound 0.949 µM) 15.9% | viability, T/C (second compound 10 µM, first compound 3 µM) 9.75%
< 9.49 nM: IC50 (second compound 1 µM) | IC50 (second compound 3.16 µM) | IC50 (second compound 10 µM)
15.5 nM: IC50 (second compound 0.0316 µM)
16 nM: IC50 (second compound 0.316 µM)
